Measurements from patent US12419307B2, “Mixtures comprising indazole pesticides” (FMC Corporation, priority 2019, dated 2025).
Like-named read-outs stand apart in the source and are kept apart here.

Tests used:
Format in all cases: in vivo
[1] = system: Potato Leafhopper (Empoasca fabae Harris); experiment: Test C: Potato Leafhopper control on bean plants, insect mortality after 6 days; conditions: read-out: % Mortality (obs)
Procedure: (§1) The pest control protection afforded by the mixtures or compositions is not limited, however, to these species. The analysis of enhanced activity between the mixtures or compositions was determined using Colby's equation. The average % mortality data for the test compounds alone were inserted into the Colby's equation. If the observed (obs) average % mortality was higher than “p”, the expected (exp) % mortality, the mixture or composition had enhanced effects. If the observed average % mortality was equal to or lower than the expected mortality, the mixture or composition either had no enhanced effect. For bioassays where insect feeding damage was evaluated, enhanced activity is identified when the observed plant damage is less than the expected plant damage rating; ratings ranged between 0 (no damage) and 10 (dead plant) and each value was converted to a % plant protection. 100−(Obs Plant Damage*10)
For evaluating control of Potato Leafhopper (Empoasca fabae Harris) through contact and/or systemic means, each test unit consisted of a small open container with a 5- to 6-day-old Longio bean plant (primary leaves emerged) inside. White sand was added to the top of the soil, and one of the primary leaves was excised prior to application. Test compounds were formulated and sprayed with 3 replications as described for Test A. After spraying, the test units were allowed to dry for 1 hour before they were infested with 5 potato leafhoppers (18- to 21-day-old adults). A black, screened cap was placed on the top of each container. The test units were held for 6 days in a growth chamber at 19-21° C. and 50-70% relative humidity.

[2] = system: diamondback moth (Plutella xylostella L.); experiment: Test E: diamondback moth control on mustard plants, contact and/or systemic, plant damage rating after 6 days
Procedure: as §1
For evaluating control of diamondback moth (Plutella xylostella L.) through contact and/or systemic means, each test unit consisted of a small open container with a 10- to 12-day-old mustard plant inside. Test compounds were formulated and sprayed with 3 replications as described for Test A. After spraying, the test units were allowed to dry for 1 hour before they were infested with 30-50 neonate larvae. A black, screened cap was placed on the top of each container. The test units were held for 6 days in a growth chamber at 24-25° C. and 70% relative humidity. Each test unit was then visually assessed for plant damage and rated 0-10, where 0=undamaged and 10=plant is dead; the results are listed in Tables 6a-b.

[3] = system: fall armyworm (Spodoptera frugiperda (J. E. Smith)); experiment: Test E: fall armyworm control on corn plants, plant damage rating and mortality after 6 days; conditions: Spodoptera frugiperda, 144 h, Table 6e, read-out: Plant Protection (obs)
Procedure: as §1
For evaluating control of fall armyworm (Spodoptera frugiperda (J. E. Smith)) the test unit consisted of a small open container with a 4-5-day-old corn (maize) plant inside. This was pre-infested with 10-15 1-day-old larvae on a piece of insect diet. Test compounds were formulated and sprayed with 3 replications as described for Test A. After spraying of the formulated test compound, the test units were maintained in a growth chamber for 6 days at 25° C. and 70% relative humidity. Plant feeding damage was then visually assessed based on foliage consumed, and larvae were assessed for mortality. Each test unit was then visually assessed for plant damage and rated 0-10, where 0=undamaged and 10=plant is dead; the results are listed in Tables 6d-i.

[4] = system: Western Flower Thrips (Frankliniella occidentalis Pergande); experiment: Test B: Western Flower Thrips control on bean plants, plant damage rating converted to % plant protection after 7 days; conditions: for pest or weed control at 3.18 ppm / pest or weed control at 9.75 ppm / pest or weed control at 1.5 ppm / pest or weed control at 4.5 ppm: Frankliniella occidentalis, 168 h, read-out: Plant Protection (obs); for Plant Damage (obs): Table 3a; for Plant Damage (obs) / Plant Protection (obs): applied alone
Procedure: as §1
Thus, a plant given a plant damage rating of 3 out of 10 is equivalent to 70% plant protection In all of these tests, compounds of Formula I are Compounds 1 (Cpd 1), 2 (Cpd2), and 3 (Cpd3) and compounds of Formula II are compounds 4 (Cpd4) and 5 (Cpd 5).
For evaluating control of the Western Flower Thrips (Frankliniella occidentalis Pergande) through contact and/or systemic means, each test unit consisted of a small open container with a 5- to 7-day-old bean (var. Soleil) plant inside.
Test solutions were formulated and sprayed with 3 replications as described for Test A. After spraying, the test units were allowed to dry for 1 hour, 22 to 27 adult thrips were added to each unit and then a black, screened cap was placed on top. The test units were held for 7 days at 25° C. and 45-55% relative humidity. To evaluate the level of plant protection provided by each treatment, each test unit was then visually assessed for plant damage inflicted by insect feeding and rated 0-10, where 0=undamaged and 10=plant is dead; the results are listed in Tables 3a-g.

[5] = system: silverleaf whitefly (Bemisia argentifolii Bellows and Perring); experiment: Test A: silverleaf whitefly control on cotton or soybean plants, spray, insect mortality after 13 days; conditions: Bemisia argentifolii, applied alone, read-out: % Mortality (obs)
Procedure: as §1
For evaluating control of silverleaf whitefly (Bemisia argentifolii Bellows and Perring) through contact and/or systemic means, each test unit consisted of a small open container with a 12- to 14-day-old cotton plant or 5-7 day old soybean plant inside. This was pre-infested by placing test units into cages containing adult whiteflies so that oviposition on the cotton leaves could occur. The adults were removed from the plants with an air-blast nozzle, and the test units were capped. The test units were then stored 2 to 3 days before spraying.
Test compounds were formulated using a solution containing 10% acetone, 90% water and 300 ppm Activator 90@ Spreader Lo-Foam Formula non-ionic surfactant containing alkylarylpolyoxyethylene, free fatty acids, glycols and 2-propanol (Loveland Industries, Inc.) to provide the desired concentration in ppm. Formulated test solutions were then applied in 1 mL volumes through a SUJ2 atomizer nozzle with ⅛ JJ custom body (Spraying Systems Co.) positioned 1.27 cm (0.5 inches) above the top of each test unit.
The results for all experimental compositions in this test were replicated three times. After spraying of the formulated test composition, each test unit was allowed to dry for 1 hour and the cap removed. The test units were held for 13 days in a growth chamber at 28° C. and 50-70% relative humidity.

With `CSCC(C)(C)NC(=O)c1ccc(F)c2nn(-c3cccnc3)cc12` [Cpd 1, N-[1,1-dimethyl-2-(methylthio)ethyl]-7-fluoro-2-(3-pyridinyl)-2H-indazole-4-carboxamide] the mortality at 50 ppm ([1]; Table 4a) was 60%, the mortality at 250 ppm ([1]; Table 4a) was 35.7% and the mortality at 50 ppm ([1]; Table 4b) was 20%. For the same molecule, the mortality at 250 ppm ([1]; Table 4b) was 6.7%, the mortality at 50 ppm ([1]; Table 4c) was 6.7% and the mortality at 250 ppm ([1]; Table 4c) was 33.3%. The “Plant Protection (obs)” value ([2]; Table 6a, 50 ppm) was 0.0, the “Plant Protection (obs)” value ([2]; Table 6a, 250 ppm) was 0.0 and the “Plant Protection (obs)” value ([2]; Table 6b, 50 ppm) was 0.0. The “Plant Protection (obs)” value ([2]; Table 6b, 250 ppm) was 0.0, the pest or weed control at 50 ppm [3] was 0% and the pest or weed control at 250 ppm [3] was 0%. For the same molecule, the pest or weed control at 3.18 ppm ([4]; Table 3e, 3.18 ppm) was 76.7%, the pest or weed control at 9.75 ppm ([4]; Table 3e, 9.75 ppm) was 66.7% and the pest or weed control at 3.18 ppm ([4]; Table 3f, 3.18 ppm) was 33.3%. For the same molecule, the pest or weed control at 9.75 ppm ([4]; Table 3f, 9.75 ppm) was 80%, the pest or weed control at 3.18 ppm ([4]; Table 3g, 3.18 ppm) was 10% and the pest or weed control at 9.75 ppm ([4]; Table 3g, 9.75 ppm) was 76.7%. The pest or weed control at 3.18 ppm ([4]; Table 3d, 3.18 ppm) was 63.3%, the pest or weed control at 9.75 ppm ([4]; Table 3d, 9.75 ppm) was 90% and the “Plant Damage (obs)” value ([4]; 3.18 ppm) was 33.3%. For the same molecule, the “Plant Damage (obs)” value ([4]; 9.75 ppm) was 73.3%, the “Plant Protection (obs)” value ([4]; Table 3b, 3.18 ppm) was 73.3% and the “Plant Protection (obs)” value ([4]; Table 3b, 9.75 ppm) was 76.7%. For the same molecule, the “Plant Protection (obs)” value ([4]; Table 3c, 3.18 ppm) was 63.3%, the “Plant Protection (obs)” value ([4]; Table 3c, 9.75 ppm) was 83.3% and the mortality at 50 ppm ([5]; 2 h, Table 2h) was 2.4%. It also gave a mortality at 250 ppm ([5]; 2 h, Table 2h) of 7.6%, a mortality at 50 ppm ([5]; 48 h, Table 2d) of 0% and a mortality at 250 ppm ([5]; 48 h, Table 2d) of 1.3%. It also gave a mortality at 50 ppm ([5]; Table 2a) of 0%, a mortality at 250 ppm ([5]; Table 2a) of 18.8% and a mortality at 50 ppm ([5]; Table 2b) of 80%. It also gave a mortality at 250 ppm ([5]; Table 2b) of 0%, a mortality at 50 ppm ([5]; Table 2c) of 0% and a mortality at 250 ppm ([5]; Table 2c) of 3.1%. For the same molecule, the mortality at 50 ppm ([5]; Table 2e) was 0%, the mortality at 250 ppm ([5]; Table 2e) was 2.2% and the mortality at 50 ppm ([5]; Table 2f) was 9.3%. It also gave a mortality at 250 ppm ([5]; Table 2f) of 0%, a mortality at 50 ppm ([5]; Table 2g) of 2.6% and a mortality at 250 ppm ([5]; Table 2g) of 2.1%.
Molecule `C[S+]([O-])CC(C)(C)NC(=O)c1ccc(F)c2nn(-c3cccnc3)cc12` (stereo not drawn) [Cpd 2, N-[1,1-dimethyl-2-(methylsulfinyl)ethyl]-7-fluoro-2-(3-pyridinyl)-2H-indazole-4-carboxamide] has a mortality at 50 ppm ([1]; Table 4a) of 46.7%, a mortality at 250 ppm ([1]; Table 4a) of 86.7% and a mortality at 50 ppm ([1]; Table 4b) of 6.7%. It also gave a mortality at 250 ppm ([1]; Table 4b) of 85.7%, a mortality at 50 ppm ([1]; Table 4c) of 20% and a mortality at 250 ppm ([1]; Table 4c) of 73.3%. For the same molecule, the “Plant Protection (obs)” value ([2]; Table 6a, 50 ppm) was 0.0, the “Plant Protection (obs)” value ([2]; Table 6a, 250 ppm) was 0.0 and the “Plant Protection (obs)” value ([2]; Table 6b, 50 ppm) was 0.0. The “Plant Protection (obs)” value ([2]; Table 6b, 250 ppm) was 0.0, the pest or weed control at 50 ppm [3] was 0% and the pest or weed control at 250 ppm [3] was 0%. It also gave a pest or weed control at 1.5 ppm ([4]; Table 3e, 1.5 ppm) of 66.7%, a pest or weed control at 4.5 ppm ([4]; Table 3e, 4.5 ppm) of 43.3% and a pest or weed control at 1.5 ppm ([4]; Table 3f, 1.5 ppm) of 43.3%. For the same molecule, the pest or weed control at 4.5 ppm ([4]; Table 3f, 4.5 ppm) was 73.3%, the pest or weed control at 1.5 ppm ([4]; Table 3g, 1.5 ppm) was 16.7% and the pest or weed control at 4.5 ppm ([4]; Table 3g, 4.5 ppm) was 33.3%. For the same molecule, the pest or weed control at 1.5 ppm ([4]; Table 3d, 1.5 ppm) was 36.7%, the pest or weed control at 4.5 ppm ([4]; Table 3d, 4.5 ppm) was 76.7% and the “Plant Damage (obs)” value ([4]; 1.5 ppm) was 13.3%. For the same molecule, the “Plant Damage (obs)” value ([4]; 4.5 ppm) was 56.7%, the “Plant Protection (obs)” value ([4]; Table 3b, 1.5 ppm) was 16.7% and the “Plant Protection (obs)” value ([4]; Table 3b, 4.5 ppm) was 83.3%. The “Plant Protection (obs)” value ([4]; Table 3c, 1.5 ppm) was 43.3%, the “Plant Protection (obs)” value ([4]; Table 3c, 4.5 ppm) was 80.0% and the mortality at 50 ppm ([5]; 2 h, Table 2h) was 0%. For the same molecule, the mortality at 250 ppm ([5]; 2 h, Table 2h) was 2.9%, the mortality at 50 ppm ([5]; 48 h, Table 2d) was 7.5% and the mortality at 250 ppm ([5]; 48 h, Table 2d) was 28%. The mortality at 50 ppm ([5]; Table 2a) was 10.9%, the mortality at 250 ppm ([5]; Table 2a) was 74.5% and the mortality at 50 ppm ([5]; Table 2b) was 80%. It also gave a mortality at 250 ppm ([5]; Table 2b) of 53.3%, a mortality at 50 ppm ([5]; Table 2c) of 11.8% and a mortality at 250 ppm ([5]; Table 2c) of 75.4%. It also gave a mortality at 50 ppm ([5]; Table 2e) of 17.8%, a mortality at 250 ppm ([5]; Table 2e) of 90.2% and a mortality at 50 ppm ([5]; Table 2f) of 15.7%. The mortality at 250 ppm ([5]; Table 2f) was 90.6%, the mortality at 50 ppm ([5]; Table 2g) was 31.1% and the mortality at 250 ppm ([5]; Table 2g) was 91.7%.
